# In PMC9648375, “Identification of the first-in-class dual inhibitors of human DNA topoisomerase IIα and indoleamine-2,3-dioxygenase 1 (IDO 1) with strong anticancer properties” (Journal of Enzyme Inhibition and Medicinal Chemistry, 2022):
# Experiments:
# A375 (melanoma cells) = assay: BrdU assay; assay type: cell-based, human; conditions: for IC50: Homo sapiens, A-375, A375, BrdU, 24 h, read-out: IC50 ± SD, antiproliferative activity
# Protocol: (§1) Since the inhibition of human DNA topoisomerase II should result in decreased proliferation of cancer cells, compounds 1-3 were tested using BrdU assay against a panel of cancer cell lines, including MCF-7 (estrogen-dependent human breast cancer cells), MDA-MB-231 (estrogen-independent human breast cancer cells), SCC-25 (squamous cell carcinoma of the tongue), FaDu (squamous cell carcinoma of the pharynx), A549 (human lung carcinoma), AGS (human gastric adenocarcinoma), LS-180, HT-29 (colon cancer cell lines), T98G (glioblastoma cells), and A375 (melanoma cells). Human normal skin fibroblasts (CRL-2072) were also used as a reference cell line. The BrdU assay allows quantification of cell proliferation since it measures incorporation of thymidine analogue (BrdU) during DNA replication. […] However, although the antiproliferative effect caused by 3 was mostly weaker (except for A549 and A375) than observed for 1, but the former compound was also characterised by lower toxicity against human normal cells. It results in selectivity index approaching 125 and 57, when it comes to lung cancer (A549) and melanoma cells (A375), respectively.
# Cytotoxicity of the synthesised compounds were examined against a panel of the cancer cell lines, MCF-7 (estrogen-dependent human breast cancer cells), MDA-MB-231 (oestrogen-independent human breast cancer cells), SCC- 25 (squamous cell carcinoma of the tongue), FaDu (squamous cell carcinoma of the pharynx), A- 549 (human lung carcinoma), AGS (human gastric adenocarcinoma), LS-180, HT-29 (colon cancer cell lines), T98G (glioblastoma cells), A375 (melanoma cells). Human embryonic kidney (HEK-293) cells and human normal skin fibroblasts (CRL-2072) were used as reference cell lines. The investigated cell lines were obtained from American Type Culture Collection (ATCC; Manassas, VA, USA). A375, MCF-7, MDA-MB-231, T98G cells were cultured in Dulbecco’s Modified Eagle’s Medium (DMEM) (Sigma Aldrich, St. Louis, MO, USA) supplemented with 10% heat inactivated foetal bovine serum (FBS), penicillin (100 U/mL), and streptomycin (100 μg/mL). SCC-25 cells were cultured in 1:1 mixture of Dulbecco’s modified Eagle’s medium and Ham’s F12 Medium (Sigma Aldrich, St. Louis, MO, USA) supplemented with 400 ng/ml hydrocortisone, 10% FBS, penicillin (100 U/mL), and streptomycin (100 μg/mL). A549 and AGS cells were maintained in F-12K Medium (Sigma Aldrich, St. Louis, MO, USA). LS-180 and FaDu cells were cultured in Eagle’s Minimum Essential Medium. HT-29 cells were maintained in McCoy’s 5 A Medium (Sigma Aldrich, St. Louis, MO, USA) supplemented with 10%FBS, penicillin (100 U/mL), and streptomycin (100 μg/mL). All the cells were maintained at 37 °C in a humidified atmosphere of 5% CO2.
# The BrdU assay was performed to determine the effect of synthesised compounds on the proliferation of cancer cells. BrdU assay indicates the rate of incorporation of 5′-bromo-2′-deoxy-uridine (BrdU) during DNA biosynthesis. In brief, cells were plated in 96-well plates (NUNC, Roskilde, Denmark) at the density of 3 × 10^4 cells/mL. […] Cell proliferation was examined after 24 h and 48 h of incubation according to the manufacturer’s protocol (Cell Proliferation ELISA BrdU, Roche Diagnostics GmbH, Penzberg,)Germany).
# [1] = biological target: T1, human DNA topoisomerase IIα (Homo sapiens, UniProt P11388); assay: Stabilisation of covalent DNA-enzyme cleavage complex (Topoisomerase II Drug Screening Kit); assay type: biochemical; conditions: 50 µM (Figure S4), linear DNA cleavage intermediate
# T1 construct: purchased Inspiralis Ltd, Norwich, UK
# Protocol: As relaxation of supercoiled DNA (scDNA) is one of numerous functions of topoisomerase IIα, so the appearance/disappearance of relaxed DNA bands during agarose gel electrophoresis can be used to identify compounds that inhibit the enzyme.
# Determination of the inhibitory effect of compounds 1-10 against human topoisomerase Iiα was performed using Human Topoisomerase II Relaxation Assay (Inspiralis Ltd, Norwich, UK) and Topoisomerase II Drug Screening Kit (TopoGEN Inc., Buena Vista, CO, USA) following the manufacturer’s instructions. Briefly, the increased concentrations of the compounds were mixed with the reaction mixture, incubated according to the protocol and, after reaction termination, the samples were analysed by electrophoresis using 1% agarose gel containing […] of ethidium bromide in Tris-Acetate-EDTA (TAE) buffer. Visualisation of the bands was performed using an enhanced chemiluminescence system (Syngene G:BOX Chemi XT4, Cambridge, UK). For the quantitative determination of topoisomerase II inhibition, images were densitometrically scanned.
# topoII + compound 4 (100 µM); lane 7: scDNA + topoII + compound 5 (100 µM); lane 8: scDNA + topoII
# + compound 6 (100µM); lane 9: scDNA + topoII + compound 7 (100 µM); lane 10: scDNA + topoII +
# compound 8 (100µM); lane 11: scDNA + topoII + compound 9 (100µM); lane 12: scDNA + topoII +
# Figure S4. […] Lane 1: scDNA; […]
# [2] = tested on: panel of cancer cell lines; assay: BrdU assay, whole panel; assay type: cell-based, human; conditions: cell line not named, highest value
# Protocol: as §1, with “respectively. […]” for “respectively.”
# T1 sequence (P11388 whole entry): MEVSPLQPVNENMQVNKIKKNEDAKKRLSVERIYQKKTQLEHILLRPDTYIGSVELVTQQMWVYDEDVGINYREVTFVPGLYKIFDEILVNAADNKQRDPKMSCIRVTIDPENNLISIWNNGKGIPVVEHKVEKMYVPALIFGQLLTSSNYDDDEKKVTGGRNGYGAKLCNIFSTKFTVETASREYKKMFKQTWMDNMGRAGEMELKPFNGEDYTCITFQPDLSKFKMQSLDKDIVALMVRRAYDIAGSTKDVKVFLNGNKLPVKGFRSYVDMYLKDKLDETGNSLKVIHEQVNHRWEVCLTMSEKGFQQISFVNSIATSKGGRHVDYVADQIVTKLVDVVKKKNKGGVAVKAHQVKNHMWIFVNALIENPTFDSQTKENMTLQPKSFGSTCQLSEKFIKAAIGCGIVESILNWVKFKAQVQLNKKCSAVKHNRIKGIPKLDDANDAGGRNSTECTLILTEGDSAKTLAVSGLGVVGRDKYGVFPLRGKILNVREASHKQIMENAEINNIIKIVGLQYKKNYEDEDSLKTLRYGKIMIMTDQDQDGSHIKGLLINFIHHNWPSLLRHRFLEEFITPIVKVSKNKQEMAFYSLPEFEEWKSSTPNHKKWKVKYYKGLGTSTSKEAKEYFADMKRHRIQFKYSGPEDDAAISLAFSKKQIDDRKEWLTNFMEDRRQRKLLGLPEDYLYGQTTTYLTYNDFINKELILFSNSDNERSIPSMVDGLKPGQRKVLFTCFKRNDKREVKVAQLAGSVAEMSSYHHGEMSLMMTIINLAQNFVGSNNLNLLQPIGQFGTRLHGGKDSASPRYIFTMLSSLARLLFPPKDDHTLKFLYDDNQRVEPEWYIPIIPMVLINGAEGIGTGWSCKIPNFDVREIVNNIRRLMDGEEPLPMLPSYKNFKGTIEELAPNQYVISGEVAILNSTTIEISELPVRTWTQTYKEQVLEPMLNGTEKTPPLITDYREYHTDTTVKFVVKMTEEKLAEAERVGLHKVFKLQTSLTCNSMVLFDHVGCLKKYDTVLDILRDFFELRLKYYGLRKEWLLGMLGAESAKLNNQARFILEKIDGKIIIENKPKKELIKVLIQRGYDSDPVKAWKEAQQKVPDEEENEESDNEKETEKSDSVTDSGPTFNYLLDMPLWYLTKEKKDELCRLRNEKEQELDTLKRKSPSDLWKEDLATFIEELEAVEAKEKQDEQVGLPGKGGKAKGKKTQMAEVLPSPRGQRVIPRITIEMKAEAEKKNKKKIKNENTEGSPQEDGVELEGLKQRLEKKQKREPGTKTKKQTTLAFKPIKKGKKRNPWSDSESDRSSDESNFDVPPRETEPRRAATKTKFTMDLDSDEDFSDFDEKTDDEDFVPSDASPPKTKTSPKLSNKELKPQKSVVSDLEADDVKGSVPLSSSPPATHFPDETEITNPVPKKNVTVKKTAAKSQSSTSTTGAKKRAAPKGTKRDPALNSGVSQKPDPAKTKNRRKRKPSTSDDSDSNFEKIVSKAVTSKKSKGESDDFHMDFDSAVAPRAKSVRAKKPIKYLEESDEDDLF
IC50 (A375 (melanoma cells)),SMILES,"selectivity index, A375 vs. human normal skin fibroblasts (A375 (melanoma cells); BrdU assay, melanoma cells (A375))",stabilisation of the covalent DNA-enzyme cleavage complex [1],"antiproliferative activity, fold higher than that of etoposide [2]"
0.85 ± 0.04 µg/mL,"O=C(Cc1cccc2ccccc12)NNC(=S)Nc1ccc(N=Nc2ccccc2)cc1 [Compound 2, 4-(4-Phenylazophenyl)-1-[(naphth-1-yl)acetyl]thiosemicarbazide]",–,–,–
0.56 ± 0.03 µg/mL,"O=C(NNC(=S)Nc1ccc(N=Nc2ccccc2)cc1)c1ccccc1[N+](=O)[O-] [Compound 3, 4-(4-Phenylazophenyl)-1-(2-nitrobenzoyl)thiosemicarbazide]",~57,–,–
9.18 ± 0.15 µg/mL,"COc1cc([C@@H]2c3cc4c(cc3[C@@H](O[C@@H]3O[C@@H]5CO[C@@H](C)O[C@H]5[C@H](O)[C@H]3O)[C@H]3COC(=O)[C@H]23)OCO4)cc(OC)c1O [Etoposide, etoposide, reference compound]",–,able to stabilise the covalent DNA-enzyme cleavage complex,–
0.96 ± 0.03 µg/mL,"CC(C)c1cccc(C(C)C)c1NC(=S)NNC(=O)Cc1cccc2ccccc12 [Compound 1, 4-(2,6-Diisopropylphenyl)-1-[(naphth-1-yl)acetyl]thiosemicarbazide]",–,–,≤ 90 fold
